Among the data in publication PMC10824666 (Nature Cancer, 2023) are remaining activity values, retold here.

SMILES strings stand for the structures. Read-outs that look alike come from different tables or passages of the source.

The target of experiment [1] is MAP3K9 (Homo sapiens, UniProt P80192). Kind of experiment: biochemical. Conditions: competitive binding, percent of DMSO control. Also on record: Eurofins DiscoverX kinase panel, competitive binding assay at 1 uM, percent of DMSO control. The procedure, abridged: (§1)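 Competitive binding assay across a 96-kinase panel with KIF18A compounds at 1 µM; values given as percentage of control (POC), single experiment.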

The target of experiment [2] is T1, YSK4 (Homo sapiens, UniProt Q56UN5).
T1 construct: gene MAP3K19
T1 sequence (Q56UN5 1-1328): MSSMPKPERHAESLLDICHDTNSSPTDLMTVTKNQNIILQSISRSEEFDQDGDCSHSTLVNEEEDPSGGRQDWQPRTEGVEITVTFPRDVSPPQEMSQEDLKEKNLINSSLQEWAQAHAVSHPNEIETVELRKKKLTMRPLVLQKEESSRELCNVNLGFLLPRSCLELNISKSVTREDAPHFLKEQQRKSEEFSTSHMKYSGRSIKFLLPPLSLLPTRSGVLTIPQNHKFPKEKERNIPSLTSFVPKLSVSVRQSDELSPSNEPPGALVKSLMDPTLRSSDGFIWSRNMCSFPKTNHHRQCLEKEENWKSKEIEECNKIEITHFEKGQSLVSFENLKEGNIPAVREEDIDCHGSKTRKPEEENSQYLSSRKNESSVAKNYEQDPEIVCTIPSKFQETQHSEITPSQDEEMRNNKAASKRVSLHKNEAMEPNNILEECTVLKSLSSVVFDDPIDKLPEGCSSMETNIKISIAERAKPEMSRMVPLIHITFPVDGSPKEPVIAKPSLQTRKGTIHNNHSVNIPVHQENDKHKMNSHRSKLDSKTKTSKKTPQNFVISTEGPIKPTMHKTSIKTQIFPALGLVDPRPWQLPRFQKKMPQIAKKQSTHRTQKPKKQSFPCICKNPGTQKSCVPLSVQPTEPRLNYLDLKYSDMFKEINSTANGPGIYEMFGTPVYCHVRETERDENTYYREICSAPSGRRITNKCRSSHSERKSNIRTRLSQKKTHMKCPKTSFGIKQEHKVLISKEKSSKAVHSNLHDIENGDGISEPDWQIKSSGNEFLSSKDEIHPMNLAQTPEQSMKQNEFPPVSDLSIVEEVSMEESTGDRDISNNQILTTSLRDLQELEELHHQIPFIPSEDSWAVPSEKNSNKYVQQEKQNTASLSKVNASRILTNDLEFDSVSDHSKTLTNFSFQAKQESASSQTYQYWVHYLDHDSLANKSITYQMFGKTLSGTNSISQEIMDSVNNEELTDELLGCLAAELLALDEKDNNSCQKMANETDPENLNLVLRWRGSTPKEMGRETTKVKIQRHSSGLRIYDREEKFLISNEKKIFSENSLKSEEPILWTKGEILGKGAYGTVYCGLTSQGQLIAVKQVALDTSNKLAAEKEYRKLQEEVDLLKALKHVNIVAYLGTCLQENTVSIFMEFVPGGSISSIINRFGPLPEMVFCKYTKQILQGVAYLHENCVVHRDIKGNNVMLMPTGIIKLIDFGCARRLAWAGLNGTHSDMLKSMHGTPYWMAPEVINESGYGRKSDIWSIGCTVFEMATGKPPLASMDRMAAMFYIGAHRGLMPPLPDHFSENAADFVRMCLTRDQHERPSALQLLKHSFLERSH
As to the kind of experiment: biochemical. Further details: Eurofins DiscoverX kinase panel, competitive binding assay at 1 uM, percent of DMSO control. Conditions: competitive binding, percent of DMSO control. The procedure, abridged: as §1

[3] abbreviates: read-out: Kinome Profiling performed by Eurofins DiscoverX / AM-0277, 1.0 µM / POC.
Setting [4] is: read-out: Kinome Profiling performed by Eurofins DiscoverX / AM-1882, 1.0 µM / POC.
Setting [5] is: read-out: Kinome Profiling performed by Eurofins DiscoverX / AM-5308, 1.0 µM / POC.

Sequence of MAP3K9 (P80192 whole entry): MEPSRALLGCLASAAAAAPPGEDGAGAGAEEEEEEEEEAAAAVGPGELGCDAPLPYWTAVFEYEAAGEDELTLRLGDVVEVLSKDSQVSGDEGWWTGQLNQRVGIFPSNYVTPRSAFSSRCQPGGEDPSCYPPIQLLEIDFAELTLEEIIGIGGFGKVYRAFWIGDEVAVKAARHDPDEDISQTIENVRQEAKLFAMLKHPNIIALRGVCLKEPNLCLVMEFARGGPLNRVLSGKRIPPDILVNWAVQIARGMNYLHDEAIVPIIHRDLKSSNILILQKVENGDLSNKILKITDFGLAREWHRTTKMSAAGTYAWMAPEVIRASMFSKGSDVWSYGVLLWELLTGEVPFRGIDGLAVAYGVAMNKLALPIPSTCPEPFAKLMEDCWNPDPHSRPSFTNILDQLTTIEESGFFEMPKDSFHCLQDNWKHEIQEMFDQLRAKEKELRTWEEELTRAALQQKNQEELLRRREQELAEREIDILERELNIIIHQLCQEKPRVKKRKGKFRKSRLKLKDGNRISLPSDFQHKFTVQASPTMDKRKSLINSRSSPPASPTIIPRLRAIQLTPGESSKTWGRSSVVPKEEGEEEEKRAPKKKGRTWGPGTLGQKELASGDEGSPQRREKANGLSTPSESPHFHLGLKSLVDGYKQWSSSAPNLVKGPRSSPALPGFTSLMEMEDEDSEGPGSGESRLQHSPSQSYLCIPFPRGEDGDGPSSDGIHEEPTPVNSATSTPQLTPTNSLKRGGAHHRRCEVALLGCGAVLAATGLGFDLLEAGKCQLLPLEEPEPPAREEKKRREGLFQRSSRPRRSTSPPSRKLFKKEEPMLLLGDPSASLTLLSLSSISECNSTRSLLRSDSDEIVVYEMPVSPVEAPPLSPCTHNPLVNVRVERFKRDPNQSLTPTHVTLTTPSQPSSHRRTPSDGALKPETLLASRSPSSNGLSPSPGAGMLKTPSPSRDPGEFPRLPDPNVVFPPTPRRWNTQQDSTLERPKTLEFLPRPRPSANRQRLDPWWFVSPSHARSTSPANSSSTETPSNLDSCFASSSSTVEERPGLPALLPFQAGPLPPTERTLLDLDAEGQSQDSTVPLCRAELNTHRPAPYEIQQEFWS

Take `CC(C)(CO)Nc1ccc(C(=O)Nc2cccc(S(=O)(=O)C3CCCC3)c2)c(N2CCC3(CC2)CC3)n1` [AM-0277]: the remaining activity at 1 µM in experiment [1] (setting [3]) and in experiment [2] (setting [3]) was 100% each time.

On to `CC(C)(C)NS(=O)(=O)c1cccc(NC(=O)c2ccc(S(=O)(=O)NC(C)(C)C)cc2N2CCC3(CC2)CC3)c1` [AM-1882], for which the results for the remaining activity at 1 µM in experiment [1] (setting [4]) and in experiment [2] (setting [4]) were 100% and 87%, respectively.

For `C[C@@H]1CN(c2cccc(NC(=O)c3ccc(NS(=O)(=O)CCO)cc3N3CCC4(CC3)CC4)n2)CCO1` [AM-5308], the remaining activity at 1 µM in experiment [1] (setting [5]) stood at 95%; in experiment [2] (setting [5]) it was 75.5%.
